Data published in US7507727B2, “Substituted quinobenzoxazine analogs and methods of using thereof” (Cylene Pharmaceuticals, Inc., priority 2003, dated 2009).
Read-outs that look alike come from different tables or passages of the source.

What was measured:
[1] = tested on: c-MYC mRNA; assay: c-MYC mRNA expression in tumor samples by QPCR; format: in vivo, mice; conditions: HCT-116
Experimental: CX-3543 was tested against a number of cancer xenograft models to determine the in vivo efficacy. HCT-116 and PC-3 tumor-bearing nu/nu or MiaPaCa tumor-bearing SCID mice were administered reference and testing compounds on schedules indicated in figure legends. Tumor measurements were taken with calipers every other day or twice a week starting from the first day of dosing and body weights were measured at the same time points. Tumor volumes were calculated from the standard formula, W^2×L/2. c-MYC mRNA expression was measured with QPCR from all tumor samples following the final dose. 18S ribosomal RNA was used as a housekeeper and also quantified with QPCR.

[2] = tested on: HCT-116 cells; assay: DNA cell cycle analysis; format: cell-based; conditions: serum-starved HCT-116 cells, 24 hr, 1 to 5 um
Experimental: The following protocol was followed in this example. Seed 1.5-2.0×10^6 cells/10 cm dish (seed one extra dish for unstained cells). Incubate cells in 37° C. humidified 5% CO2 incubator for 24 hours. For synchronizing cells in a low growth state to make cells quiescent, remove media and rinse once with serum-free media, add 10 ml of serum-free media to each dish. Incubate the cells for 24 hr in a 37° C. humidified 5% CO2 incubator. Remove media and add treatment (diluted in serum contained media, 10 ml): 1-5 μM CX-3543 plus control. Incubate the cells for 24 hr in a 37° C. humidified 5% CO2 incubator.
To trypsinize/isolate cells, remove treatment. Add 3 ml trypsin/EDTA solution. Keep floating cells and combine with attached cells. Incubate for 5 min in a 37° C. humidified 5% CO2 incubator. Add 3 ml media (containing FBS) to wells and pipette into centrifuge tube. Centrifuge at 1000 rpm for 5 minutes. Decant supernatant and re-suspend pellet in 2-3 ml PBS. Count cells and wash cells once by putting 2×10^6 cells/tube, adding 2 ml PBS and centrifuging at 1000 rpm for 5 minutes. Re-suspend pelleted cells in 0.3 ml cold PBS.
To fix cells, gently add 0.7 ml ice cold 70% ethanol drop wise to tube containing 0.3 ml of cell suspension in PBS while vortexing. Leave on Ice for one hour (or up to a few days at 4C). Centrifuge at 1000 rpm for 5 minutes. Wash one time with cold PBS (1-2 ml). […]

[3] = Pharmacokinetic/toxicokinetic evaluation in dogs; format: in vivo, beagle dogs; conditions: for Accumulation Ratio: Dose 5 to Dose 1 AUC(0-24), 1.2 mg/kg IV; for Tmax / AUC(0-t) / Cmax / half-life: iv, 1.2 mg/kg; for Tmax: median
Experimental: The study was conducted using three (3) test article and one (1) control article group. The control article was the solution (5% dextrose in water) used to dilute the test article prior to administration and was administered at the same volume as the high dose. The test article dosage levels for this study were approximately 12, 3.8, and 1.2 mg/kg. Test and control articles were administered once by intravenous (IV) infusion over approximately a one hour period on five consecutive days. Blood samples for test article blood level analysis was taken as follows (i.e., pk/tk sampling): approximately 1 mL of blood was taken from three male and three female dogs in the low dose group at approximately 20 minutes and 40 minutes from the start of the infusion, and then at the end of infusion (Time 0) and at 5, 10, 15, and 30 minutes, and 1, 2, 4, 8, 12, and 24 hours from the end of the infusion after the first and fifth doses. Also, prior to and immediately after Dose 1 and after Dose 5 for all animals, and for recovery animals prior to necropsy, approximately 5-10 second ECG tracings in a lead II configuration were obtained. Animals were terminated one (1) or 15 days after the last dose. Blood for hematology and clinical chemistry analysis was drawn pre-dose and prior to euthanasia at termination. Following euthanasia, a necropsy was performed to include collection of major organs for microscopic evaluation.
PK/TK: Blood samples for test article blood level analysis were taken. Approximately 1 mL of blood was taken from three males and three females in the low dose group at approximately 20 minutes and 40 minutes from the start of the infusion, and then at the end of infusion (Time 0) and at 5, 10, 15, and 30 minutes, and 1, 2, 4, 8, 12, and 24 hours from the end of the infusion after the first and fifth dose. Plasma (lithium heparin anticoagulant) samples were prepared and analyzed.

CN1CCCC1CCNC(=O)c1cn2c3c(c(N4CCC(c5cnccn5)C4)c(F)cc3c1=O)Oc1cc3ccccc3cc1-2 (stereo not drawn) [CX-3543]
lowering of c-Myc mRNA expression relative to control (18s rRNA) in tumor tissue ([1]; 20 mg/kg group): 85%
c-Myc mRNA expression relative to control (18s rRNA) in tumor tissue ([1]; 10, 15 and 20 mg/kg): dose-dependent lowering
effect on the distribution of cells throughout the cell cycle [2]: no observable effect
AUC(0-inf) ([3]; beagle, dog, plasma, female, 1.2 mg/kg IV infusion, Dose 1, read-out: Mean AUC(0-inf)): 386 ng·h/mL
AUC(0-inf) ([3]; beagle, dog, plasma, male, 1.2 mg/kg IV infusion, Dose 1, read-out: Mean AUC(0-inf)): 317 ng·h/mL
Dose 5 to Dose 1 ratio for AUC(0-24) ([3]; female): 1.1
AUC(0-inf) ([3]; female, Dose 1, 1.2 mg/kg IV, mean): 386.3 ng·h/mL
Accumulation Ratio ([3]; female): 1.1
Tmax ([3]; female, beagle, dog, plasma, Dose 1, 1.2 mg/kg IV): 0.67 h
Tmax ([3]; female, beagle, dog, plasma, Dose 5, 1.2 mg/kg IV): 1 h
AUC(0-t) ([3]; female, beagle, dog, plasma, female, 1.2 mg/kg IV infusion, Dose 1, read-out: Mean AUC(0-24)): 381 ng·h/mL
Cmax ([3]; female, beagle, dog, plasma, female, 1.2 mg/kg IV infusion, Dose 1, read-out: Mean Cmax): 139 ng/mL
half-life ([3]; female, beagle, dog, plasma, female, 1.2 mg/kg IV infusion, Dose 1, read-out: mean terminal half-life (converted)): 3.8 h
AUC(0-t) ([3]; female, beagle, dog, plasma, female, 1.2 mg/kg once daily, Dose 5, read-out: Mean AUC(0-24)): 444 ng·h/mL
Cmax ([3]; female, beagle, dog, plasma, female, 1.2 mg/kg once daily, Dose 5, read-out: mean Cmax): 145 ng/mL
Cmax ([3]; female, beagle, dog, plasma, female, Dose 1, 1.2 mg/kg IV once daily, mean, read-out: Cmax): 139 ng/mL
half-life ([3]; female, beagle, dog, plasma, female, Dose 1, 1.2 mg/kg IV, harmonic mean, read-out: T1/2 (converted)): 3.8 h
AUC(0-t) ([3]; female, beagle, dog, plasma, female, Dose 1, 1.2 mg/kg IV, mean, read-out: AUC(0-24)): 381 ng·h/mL
Cmax ([3]; female, beagle, dog, plasma, female, Dose 5, 1.2 mg/kg IV once daily for 5 days, mean, read-out: Cmax): 145 ng/mL
half-life ([3]; female, beagle, dog, plasma, female, Dose 5, 1.2 mg/kg IV, harmonic mean, read-out: T1/2 (converted)): 5.2 h
AUC(0-t) ([3]; female, beagle, dog, plasma, female, Dose 5, 1.2 mg/kg IV, mean, read-out: AUC(0-24)): 444 ng·h/mL
half-life ([3]; female, beagle, dog, plasma, female, Dose 5, read-out: mean terminal half-life (converted)): 5.2 h
Dose 5 to Dose 1 ratio for AUC(0-24) ([3]; male): 1.2
AUC(0-inf) ([3]; male, Dose 1, 1.2 mg/kg IV, mean): 316.9 ng·h/mL
Accumulation Ratio ([3]; male): 1.2
Tmax ([3]; male, beagle, dog, plasma, Dose 1, 1.2 mg/kg IV): 0.67 h
Tmax ([3]; male, beagle, dog, plasma, Dose 5, 1.2 mg/kg IV): 1 h
AUC(0-t) ([3]; male, beagle, dog, plasma, male, 1.2 mg/kg IV infusion, Dose 1, read-out: Mean AUC(0-24)): 314 ng·h/mL
Cmax ([3]; male, beagle, dog, plasma, male, 1.2 mg/kg IV infusion, Dose 1, read-out: Mean Cmax): 108 ng/mL
half-life ([3]; male, beagle, dog, plasma, male, 1.2 mg/kg IV infusion, Dose 1, read-out: mean terminal half-life (converted)): 3.2 h
AUC(0-t) ([3]; male, beagle, dog, plasma, male, 1.2 mg/kg once daily, Dose 5, read-out: Mean AUC(0-24)): 363 ng·h/mL
Cmax ([3]; male, beagle, dog, plasma, male, 1.2 mg/kg once daily, Dose 5, read-out: mean Cmax): 126 ng/mL
Cmax ([3]; male, beagle, dog, plasma, male, Dose 1, 1.2 mg/kg IV once daily, mean, read-out: Cmax): 108 ng/mL
half-life ([3]; male, beagle, dog, plasma, male, Dose 1, 1.2 mg/kg IV, harmonic mean, read-out: T1/2 (converted)): 3.2 h
AUC(0-t) ([3]; male, beagle, dog, plasma, male, Dose 1, 1.2 mg/kg IV, mean, read-out: AUC(0-24)): 314 ng·h/mL
Cmax ([3]; male, beagle, dog, plasma, male, Dose 5, 1.2 mg/kg IV once daily for 5 days, mean, read-out: Cmax): 126 ng/mL
half-life ([3]; male, beagle, dog, plasma, male, Dose 5, 1.2 mg/kg IV, harmonic mean, read-out: T1/2 (converted)): 5.2 h
AUC(0-t) ([3]; male, beagle, dog, plasma, male, Dose 5, 1.2 mg/kg IV, mean, read-out: AUC(0-24)): 363 ng·h/mL
half-life ([3]; male, beagle, dog, plasma, male, Dose 5, read-out: mean terminal half-life (converted)): 5.2 h
